Experimental data: patent publication US20260078108A1, “SOLID FORMS OF A ROCK INHIBITOR” (REDX PHARMA PLC, priority 2022, published 2026)
Counter-ions that a name gives are not always drawn.

How the values were obtained:
[1] = 7-day stability testing of solid forms (HPLC purity, XRPD); type: physicochemical
Procedure: About 10 mg of freebase Form I, HCl salt Form II, Succinate Form I and received HCl salt Form I were placed at 60° C./capped and 40° C./75% RH (open), respectively. Samples were prepared in duplicate for each condition. At day 0 and day 7, the samples were analyzed by HPLC and XRPD to check the purity and crystal form, respectively.

[2] = tested on: animal models of inflammatory bowel disease; conditions: multiple animal models of inflammatory bowel disease; preclinical data, background; cited from earlier work
[3] = Solubility testing in water, SGF, FaSSIF, FeSSIF at 37° C.; type: physicochemical
Procedure: About 15 mg of sample was weighed into each sample vial and then 3.0 mL of water, simulated gastric fluid (SGF), Fasted State Simulated Intestinal Fluid (FaSSIF) or Fed State Simulated Intestinal Fluid (FeSSIF) media was added. Samples were prepared in triplicate for each media. The suspensions were kept shaking at 37° C. for up to 24 h. At 0.5, 2 and 24 h, suspensions were filtered and the filtrate was analyzed by HPLC.

[4] = FaSSIF (pH of media 6.5), 37° C., 0.5 h
[5] = FaSSIF (pH of media 6.5), 37° C., 2 h
[6] = FaSSIF (pH of media 6.5), 37° C., 24 h
[7] = FeSSIF (pH of media 5.0), 37° C., 0.5 h
[8] = FeSSIF (pH of media 5.0), 37° C., 2 h
[9] = FeSSIF (pH of media 5.0), 37° C., 24 h
[10] = SGF (pH of media 1.2), 37° C., 0.5 h
[11] = SGF (pH of media 1.2), 37° C., 2 h
[12] = SGF (pH of media 1.2), 37° C., 24 h
[13] = Water (pH of media 7.9), 37° C., 2 h
[14] = Water (pH of media 7.9), 37° C., 24 h
[15] = pH of sample in FaSSIF (pH of media 6.5), 0.5 h
[16] = pH of sample in FaSSIF (pH of media 6.5), 2 h
[17] = pH of sample in FaSSIF (pH of media 6.5), 24 h
[18] = pH of sample in FeSSIF (pH of media 5.0), 0.5 h
[19] = pH of sample in FeSSIF (pH of media 5.0), 2 h
[20] = pH of sample in FeSSIF (pH of media 5.0), 24 h
[21] = pH of sample in SGF (pH of media 1.2), 0.5 h
[22] = pH of sample in SGF (pH of media 1.2), 2 h
[23] = pH of sample in SGF (pH of media 1.2), 24 h
[24] = pH of sample in Water (pH of media 7.9), 0.5 h
[25] = pH of sample in Water (pH of media 7.9), 2 h
[26] = pH of sample in Water (pH of media 7.9), 24 h

Row | Solubility [3, 4] [µg/mL] | Solubility [3, 5] [µg/mL] | Solubility [3, 7] [µg/mL] | Solubility [3, 8] [µg/mL] | Solubility [3, 9] [µg/mL] | Solubility [3, 10] [µg/mL] | Solubility [3, 11] [µg/mL] | Solubility [3, 12] [µg/mL] | Solubility [3, 13] [µg/mL] | Solubility [3, 14] [µg/mL] | pH [3, 15] | pH [3, 16] | pH [3, 17] | pH [3, 18] | pH [3, 19] | pH [3, 20] | pH [3, 21] | pH [3, 22] | pH [3, 23] | pH [3, 24] | Structure (SMILES) | also measured
1 | – | – | – | – | – | – | – | – | – | – | – | – | – | – | – | – | – | – | – | – | NCc1ccc(C(=O)Nc2ccncc2F)cc1-c1cccc(C(=O)Nc2ccc(SCC3CCOC3=O)cc2)c1 (stereo not shown) [Compound A, 4-(aminomethyl)-N-(3-fluoropyridin-4-yl)-3-{3-[(4-{[(2-oxooxolan-3-yl)methyl]sulfanyl}phenyl)carbamoyl]phenyl}benzamide] | Stability (in words) ([1]; chemical stability of solid forms, comparison): low chemical stability; Anti-fibrotic therapeutic effects [2]: strong anti-fibrotic therapeutic effects
2 | 23 | 5 | 83 | 91 | 66 | 780 | 841 | 1355 | 771 | 1411 | 6.4 | 6.4 | 6.4 | 4.9 | 4.9 | 4.9 | 1.4 | 1.4 | 1.4 | 5.6 | NCc1ccc(C(=O)Nc2ccncc2F)cc1-c1cccc(C(=O)Nc2ccc(SC[C@H]3CCOC3=O)cc2)c1 (stereo in doubt) [HCl salt Form I] | Solubility (mg/mL) [3, 6]: <LOD; Solubility ([3]; Water (pH of media 7.9), 37° C., 0.5 h): 680 µg/mL; pH [3, 25]: 5.7; pH [3, 26]: 5.8
3 | 5 | 2 | 188 | 173 | 46 | 3837 | 3826 | 4005 | 328 | 546 | 5.7 | 5.7 | 5.6 | 4.8 | 4.8 | 4.8 | 1.3 | 1.4 | 1.3 | 4.3 | NCc1ccc(C(=O)Nc2ccncc2F)cc1-c1cccc(C(=O)Nc2ccc(SC[C@H]3CCOC3=O)cc2)c1 [Succinate Form I] | Purity (area %) ([1]; Day 0, HPLC): 97.46 area %; Decrease in purity versus Day 0 ([1]; Day 7, 40° C./75% RH (open)): 0.2 area %; XRPD (crystal form) ([1]; Day 7, 40° C./75% RH (open)): No change; Purity (area %) ([1]; Day 7, 40° C./75% RH (open), HPLC): 97.29 area %; Decrease in purity versus Day 0 ([1]; Day 7, 60° C./capped): 0.5 area %; XRPD (crystal form) ([1]; Day 7, 60° C./capped): No change; Purity (area %) ([1]; Day 7, 60° C./capped, HPLC): 96.98 area %; Solubility [3, 6]: 1 µg/mL; Solubility in SGF (in words) ([3]; SGF, comparison with HCl Salt Form 1): more soluble in SGF than HCl Salt Form 1; pH [3, 25]: 4.2; pH [3, 26]: 4.1; solubility at 0.5 h ([3]; water, 37 °C, pH 7.9, water, thermodynamic from solid, Water (pH of media 7.9), 0.5 h): 363 µg/mL
